#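 Assay format: 96-well plates, 48-hour exposure. The concentration for 50% growth inhibition is given as GI50.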 Calls of active or inactive are those of the source. No stated cut-off is given here; in the data, active = GI50 up to about 1.1 µM and inactive = higher.
# How the values were obtained:
# Assay in all cases: NCI-60 cell line screen, 48 h
# [1] = test system: COLO 205
# [2] = test system: K562
# [3] = test system: M14
# [4] = test system: A498
# [5] = test system: HCT-15
# [6] = test system: HOP-92
# [7] = test system: MOLT-4
# [8] = test system: HL-60
# [9] = test system: EKVX
# [10] = test system: MDA-MB-231
# [11] = test system: DU-145
# [12] = test system: OVCAR-5
# [13] = test system: PC-3
# [14] = test system: NCI/ADR-RES
# [15] = test system: MCF7
# [16] = test system: UACC-257
# [17] = test system: SNB-75
# [18] = test system: T47D
# [19] = test system: CCRF-CEM
Structure (SMILES),GI50 [1],GI50 [2],GI50 [3],GI50 [4],GI50 [5] [µM],GI50 [6],GI50 [7],GI50 [8],GI50 [9],GI50 [10],GI50 [11],GI50 [12],GI50 [13],GI50 [14],GI50 [15],GI50 [16],GI50 [17],GI50 [18],GI50 [19]
CCC1c2[nH]c3ccccc3c2C[C@H]2C(=O)NC(CCCCNC(=O)OC(C)(C)C)C(=O)N12 (stereo partly drawn),29.9 µM (inactive),35.8 µM (inactive),17.5 µM (inactive),52.8 µM (inactive),31,34 µM (inactive),19.1 µM (inactive),31.8 µM (inactive),42 µM (inactive),32.7 µM (inactive),48.4 µM (inactive),68.4 µM (inactive),22.7 µM (inactive),25.7 µM (inactive),35.8 µM (inactive),21.2 µM (inactive),15.3 µM (inactive),31 µM (inactive),–
COC(=O)c1c(C)nc(C)c(NO)c1-c1ccccc1C(F)(F)F,27.1 µM (inactive),28.3 µM (inactive),19 µM (inactive),> 100 µM (inactive),16.1,14.2 µM (inactive),26.1 µM (inactive),5.41 µM (inactive),83 µM (inactive),13.8 µM (inactive),32.8 µM (inactive),31.8 µM (inactive),70.5 µM (inactive),18.2 µM (inactive),19.2 µM (inactive),22 µM (inactive),–,28 µM (inactive),29.2 µM (inactive)
O=C1Nc2ccccc2/C1=N/Nc1ccc([N+](=O)[O-])cc1,93.5 µM (inactive),17 µM (inactive),30.8 µM (inactive),15.2 µM (inactive),30.3,–,21.1 µM (inactive),15.1 µM (inactive),8.93 µM (inactive),24.8 µM (inactive),12.9 µM (inactive),20.4 µM (inactive),27.4 µM (inactive),15.4 µM (inactive),37.8 µM (inactive),29.5 µM (inactive),12.3 µM (inactive),7.62 µM (inactive),22.4 µM (inactive)
O=C(c1ccc(Cl)cc1)N(C(=S)OCc1ccccn1)c1ccccc1,> 100 µM (inactive),48.1 µM (inactive),65.3 µM (inactive),> 100 µM (inactive),40.4,–,41.6 µM (inactive),28.8 µM (inactive),20.6 µM (inactive),> 100 µM (inactive),58.6 µM (inactive),73.6 µM (inactive),45.1 µM (inactive),39 µM (inactive),46.3 µM (inactive),82.6 µM (inactive),–,29.3 µM (inactive),43.6 µM (inactive)
CCOC(=O)/C=C/C1OC(C)(C)OC1/C=C/C(=O)OCC (stereo not drawn),30.6 µM (inactive),21.4 µM (inactive),37.7 µM (inactive),42 µM (inactive),23.4,19.4 µM (inactive),28.4 µM (inactive),–,29.8 µM (inactive),39.9 µM (inactive),34.8 µM (inactive),29.9 µM (inactive),44.9 µM (inactive),32.7 µM (inactive),30.8 µM (inactive),48.4 µM (inactive),22.6 µM (inactive),29.4 µM (inactive),17.2 µM (inactive)
COc1ccc2c(c1)CCc1c-2n(CCN(C)C)c2ccc(OC)cc12,4.38 µM (inactive),3.77 µM (inactive),3.6 µM (inactive),17.6 µM (inactive),11.4,94.2 µM (inactive),10.2 µM (inactive),–,31.2 µM (inactive),11.2 µM (inactive),33.9 µM (inactive),16.8 µM (inactive),12.1 µM (inactive),18.5 µM (inactive),16.4 µM (inactive),33 µM (inactive),21.2 µM (inactive),15.5 µM (inactive),2.38 µM (inactive)
CC(C)(C)OC(=O)N1C(C2=COc3ccccc3O2)=COc2cccnc21,1.9 µM (inactive),1.99 µM (inactive),1.79 µM (inactive),1.71 µM (inactive),1.77,1.25 µM (inactive),2.06 µM (inactive),1.8 µM (inactive),1.38 µM (inactive),1.81 µM (inactive),1.33 µM (inactive),1.65 µM (inactive),1.96 µM (inactive),2 µM (inactive),1.66 µM (inactive),1.75 µM (inactive),15.7 µM (inactive),1.42 µM (inactive),–
O=C1CCc2ccccc2O1 [DIHYDROCOUMARIN],> 100 µM (inactive),> 100 µM (inactive),–,> 100 µM (inactive),> 100,> 100 µM (inactive),> 100 µM (inactive),> 100 µM (inactive),> 100 µM (inactive),> 100 µM (inactive),> 100 µM (inactive),> 100 µM (inactive),> 100 µM (inactive),> 100 µM (inactive),> 100 µM (inactive),> 100 µM (inactive),> 100 µM (inactive),> 100 µM (inactive),> 100 µM (inactive)
CC1(C)N=c2c(ncn2CCO)=C(C(N)=O)N1,> 100 µM (inactive),> 100 µM (inactive),> 100 µM (inactive),> 100 µM (inactive),> 100,26.2 µM (inactive),–,> 100 µM (inactive),> 100 µM (inactive),> 100 µM (inactive),> 100 µM (inactive),> 100 µM (inactive),> 100 µM (inactive),> 100 µM (inactive),> 100 µM (inactive),> 100 µM (inactive),–,> 100 µM (inactive),> 100 µM (inactive)
C=CC/N=C(\S)Nc1sc2c(c1C(=O)OCC)CC(C)CC2 (stereo not drawn),18.6 µM (inactive),33 µM (inactive),24 µM (inactive),–,31.8,33 µM (inactive),28.8 µM (inactive),0.849 µM (active),28.1 µM (inactive),24.8 µM (inactive),30.6 µM (inactive),30.3 µM (inactive),21.1 µM (inactive),31.1 µM (inactive),20.2 µM (inactive),20.8 µM (inactive),24.3 µM (inactive),21.4 µM (inactive),–
C=O.NNCCc1n[nH]c(=O)n1N,> 100 µM (inactive),> 100 µM (inactive),> 100 µM (inactive),–,> 100,> 100 µM (inactive),> 100 µM (inactive),> 100 µM (inactive),> 100 µM (inactive),> 100 µM (inactive),> 100 µM (inactive),> 100 µM (inactive),> 100 µM (inactive),> 100 µM (inactive),> 100 µM (inactive),> 100 µM (inactive),97.7 µM (inactive),> 100 µM (inactive),> 100 µM (inactive)
CCOC(=O)Cn1c(=O)c2nc(SC)sc2n(CC)c1=S,> 100 µM (inactive),> 100 µM (inactive),5.78 µM (inactive),–,65.5,82.6 µM (inactive),> 100 µM (inactive),> 100 µM (inactive),–,> 100 µM (inactive),> 100 µM (inactive),> 100 µM (inactive),> 100 µM (inactive),> 100 µM (inactive),> 100 µM (inactive),> 100 µM (inactive),9.38 µM (inactive),61 µM (inactive),> 100 µM (inactive)
O=C1/C(=N/c2ccc(Nc3ccccc3)cc2)Oc2ccccc21,1.65 µM (inactive),2.93 µM (inactive),2.33 µM (inactive),5.69 µM (inactive),3.3,–,2.13 µM (inactive),1.99 µM (inactive),5.31 µM (inactive),2.27 µM (inactive),8.47 µM (inactive),2.54 µM (inactive),2.81 µM (inactive),1.9 µM (inactive),2.55 µM (inactive),2.42 µM (inactive),2.15 µM (inactive),3 µM (inactive),1.86 µM (inactive)
C/C=C(\C)C(=O)O[C@@H]1CC(C)(C)CC2C3=CCC4[C@]56CC[C@](O)(OC5)C(C)(C)C6CC[C@@]4(C)C3(C)CC[C@]21C(=O)O (stereo partly drawn),83.9 µM (inactive),> 100 µM (inactive),> 100 µM (inactive),> 100 µM (inactive),83.4,–,> 100 µM (inactive),28.4 µM (inactive),> 100 µM (inactive),> 100 µM (inactive),> 100 µM (inactive),> 100 µM (inactive),39.3 µM (inactive),> 100 µM (inactive),> 100 µM (inactive),> 100 µM (inactive),–,> 100 µM (inactive),> 100 µM (inactive)
CCCC[S+]([O-])CCC(N)C(=O)O (stereo not drawn),> 100 µM (inactive),> 100 µM (inactive),> 100 µM (inactive),> 100 µM (inactive),> 100,–,> 100 µM (inactive),> 100 µM (inactive),> 100 µM (inactive),> 100 µM (inactive),> 100 µM (inactive),> 100 µM (inactive),> 100 µM (inactive),> 100 µM (inactive),> 100 µM (inactive),> 100 µM (inactive),> 100 µM (inactive),> 100 µM (inactive),> 100 µM (inactive)
CC(C)(C)OC(=O)N1CCC23CCCC2C(=O)CC=C13 (stereo not drawn),70.8 µM (inactive),> 100 µM (inactive),> 100 µM (inactive),–,> 100,38.3 µM (inactive),> 100 µM (inactive),> 100 µM (inactive),> 100 µM (inactive),> 100 µM (inactive),> 100 µM (inactive),> 100 µM (inactive),> 100 µM (inactive),> 100 µM (inactive),> 100 µM (inactive),11.8 µM (inactive),> 100 µM (inactive),> 100 µM (inactive),37.9 µM (inactive)

# Source: ChEMBL document CHEMBL1201862, “PubChem BioAssay data set” (2004)
